Data from patent US20210276967A1 (OSPEDALE SAN RAFFAELE S.R.L., priority 2018, published 2021).

tested on: HBV; assay: HBV inhibition in HepAD38 cells, extracellular HBV DNA by direct qPCR; assay type: cell-based, hepatitis B virus; conditions: Hepatitis B virus; 0.1 μM, HepAD38, 96 hours; read-out: HBV inhibition % (conc μM)
Text: HepAD38 cell line (Ladner et al., Antimicrob Agents Chemother, 1997, 41, 1715-20) was used for HBV inhibition assays. HepAD38 is a subclone, derived from hepatoblastoma cell line HepG2 (ATCC® Number: HB-8065™), that expresses HBV genome under the transcriptional control of a tetracycline-responsive promoter in a TET-OFF system: addition of tetracycline (TET) or doxycycline suppresses HBV replication, while its removal switches on the process allowing HBV viral particles release in the cell supernatant. HepAD38 cell line is maintained in DMEM/F12, supplemented with 10% of fetal bovine serum, 1% of glutamine, 1% of penicillin/streptomycin, 0.4 mg/ml G418 and 0.3 ug/ml tetracycline. For the HBV inhibition assay, doxycycline-free medium is used in order to allow virion production.
HBV inhibition activity in vitro was performed in 96 multiwell plates. During the initial (primary) screening compounds were first tested in triplicates at concentrations of 0.1 μM, 0.5 μM and 1 μM. For selected compounds, an 8-point dose-response curve was obtained using 1:2 serial dilutions (starting from 2.5 μM, 1.25 μM or 0.4 μM, depending on the degree of inhibition observed during the primary screening). From the dose-response curves, half maximal effective concentration (EC50) could be calculated (see also below).
In more detail, compounds—typically dissolved in DMSO stock solutions—were diluted to 2× the final desired concentration in 100 μl of the above medium (without doxycycline) and plated in three replicates in the 96-well plates.
Simultaneously, HepAD38 cells—extensively pre-washed in tetracycline-free medium in order to induce HBV production—were suspended at 2*10^4 cells in 100 μl of tetracycline-free medium and added to each well of the plate, to yield a final assay volume of 200 μl.
DMSO, used for stock solutions and compounds dilutions, is always present in the assays at a final concentration of 0.5%.
Plates were then incubated 96 hours at 37° C. and then subjected to cell viability assays and extracellular HBV quantification, in order to evaluate both the cytotoxic potential and the anti-viral activity of compounds.
Cytotoxicity was assessed by a commercial fluorescence assay that measures the metabolic activity of cells, directly related to cell viability (Cell Titer Blue, Promega). For each compound, cytotoxicity was evaluated at the same concentration employed to evaluate its anti-HBV activity. Anti-HBV activity was evaluated by quantification of extracellular HBV DNA with direct qPCR. In particular, supernatant was collected and centrifuged for cell debris clarification, viral DNA was extracted from virions by addition of lysis buffer (1 mM 1,4-dithiothreitol, 0.2% sodium dodecyl sulphate) and incubated at 95° C. for 10 min. Samples were then diluted 1:40 and real time PCR amplification was performed with SYBR green assay (Power SYBR™ Green PCR Master Mix-Thermo Fisher Scientific) and specific HBV primer (HBV-DF:5′-[…]-3′ (SEQ ID No. 1), HBV-DR:5′-[…]-3′ (SEQ ID No. 2)).
All HBV inhibition or antiviral activity data are typically reported in percent (%) relative to a non-treated reference sample. Excel and Graphpad Prism programs are typically used for data elaboration and EC50 calculation.

SMILES | inhibition at 0.1 µM [%]
Cc1cc(N)c(S(=O)(=O)N[C@H](C)C(F)(F)F)cc1C(=O)Nc1cc(F)c(F)c(F)c1 [Example E63, (R)-4-amino-2-methyl-N-(3,4,5-trifluorophenyl)-5-(N-(1,1,1-trifluoropropan-2-yl)sulfamoyl)benzamide] | > 50

same assay, conditions: Hepatitis B virus; 0.5 μM, HepAD38, 96 hours; read-out: HBV inhibition % (conc μM)

SMILES | inhibition at 0.5 µM [%]
Nc1ccc(C(=O)Nc2ccc(F)cc2Cl)cc1S(N)(=O)=O [Example E16, 4-amino-N-(2-chloro-4-fluorophenyl)-3-sulfamoylbenzamide] | < 50
Cc1cc(C(=O)Nc2cc(F)c(F)c(F)c2)cc(S(N)(=O)=O)c1N [Example E36, 4-amino-3-methyl-5-sulfamoyl-N-(3,4,5-trifluorophenyl)benzamide] | > 50
Nc1ccc(C(=O)Nc2cc(F)c(F)c(F)c2)cc1S(=O)(=O)NC1CCNCC1 [Example E28, 4-amino-3-(N-(piperidin-4-yl)sulfamoyl)-N-(3,4,5-trifluorophenyl)benzamide] | < 50
C[C@H](NS(=O)(=O)c1cc(C(=O)Nc2cc(F)c(F)c(F)c2)ccc1N)C(F)(F)F [Example E19, (S)-4-amino-N-(3,4,5-trifluorophenyl)-3-(N-(1,1,1-trifluoropropan-2-yl)sulfamoyl)benzamide] | > 50
Nc1ccc(C(=O)Nc2ccc(F)c(Cl)c2)cc1S(=O)(=O)N[C@H]1CC[C@H](O)CC1 [Example E43, trans-4-amino-N-(3-chloro-4-fluorophenyl)-3-(N-(4-hydroxycyclohexyl)sulfamoyl)benzamide] | > 50
Nc1ccc(C(=O)Nc2cc(F)c(F)c(F)c2)cc1S(=O)(=O)NCC(O)CO (centres unmarked) [Example E56, 4-amino-3-(N-(2,3-dihydroxypropyl)sulfamoyl)-N-(3,4,5-trifluorophenyl)benzamide] | > 50
Nc1ccc(C(=O)Nc2ccc(F)c(F)c2)cc1S(N)(=O)=O [Example E4, 4-amino-N-(3,4-difluorophenyl)-3-sulfamoylbenzamide] | > 50
CC(C)(C)OC(=O)N1CCC(NS(=O)(=O)c2cc(C(=O)Nc3cc(F)c(F)c(F)c3)ccc2N)CC1 [Example E27, tert-butyl 4-((2-amino-5-((3,4,5-trifluorophenyl)carbamoyl)phenyl)sulfonamido)piperidine-1-carboxylate] | < 50
Nc1ccc(C(=O)Nc2cc(F)c(F)c(F)c2)cc1S(=O)(=O)NC1COC1 [Example E33, 4-amino-3-(N-(oxetan-3-yl)sulfamoyl)-N-(3,4,5-trifluorophenyl)benzamide] | > 50
Cc1cc(N)c(S(N)(=O)=O)cc1C(=O)Nc1ccc(F)c(C(F)(F)F)c1 [Example E67, 4-amino-N-(4-fluoro-3-(trifluoromethyl)phenyl)-2-methyl-5-sulfamoylbenzamide] | > 50
Nc1ccc(C(=O)Nc2cc(F)c(F)c(F)c2)cc1S(=O)(=O)N[C@@H]1CC[C@@H](O)C1 (relative stereo) [Example E57, trans-4-amino-3-(N-(3-hydroxycyclopentyl)sulfamoyl)-N-(3,4,5-trifluorophenyl)benzamide] | > 50
Cc1cc(N)c(S(N)(=O)=O)cc1C(=O)Nc1ccc(F)c(C#N)c1 [Example E69, 4-amino-N-(3-cyano-4-fluorophenyl)-2-methyl-5-sulfamoylbenzamide] | > 50
Nc1ccc(C(=O)Nc2ccc(F)c(Cl)c2)cc1S(N)(=O)=O [Example E10, 4-amino-N-(3-chloro-4-fluorophenyl)-3-sulfamoylbenzamide] | > 50
Nc1ccc(C(=O)Nc2cc(F)c(F)c(F)c2)cc1S(=O)(=O)Nc1ccncc1 [Example E31, 4-amino-3-(N-(pyridin-4-yl)sulfamoyl)-N-(3,4,5-trifluorophenyl)benzamide] | < 50
Nc1ccc(C(=O)Nc2cc(F)c(F)c(F)c2)cc1S(=O)(=O)N[C@H]1CC[C@@H](O)CC1 [Example E22, cis-4-amino-3-(N-(4-hydroxycyclohexyl)sulfamoyl)-N-(3,4,5-trifluorophenyl)benzamide] | > 50
Nc1ccc(C(=O)Nc2cc(F)c(F)c(F)c2)cc1S(=O)(=O)N[C@H]1C[C@H](O)C1 [Example E25] | > 50
Nc1ccc(C(=O)Nc2cc(F)c(F)c(F)c2)cc1S(=O)(=O)N1CCC(O)(CO)CC1 [Example E50, 4-amino-3-((4-hydroxy-4-(hydroxymethyl)piperidin-1-yl)sulfonyl)-N-(3,4,5-trifluorophenyl)benzamide] | > 50
Nc1ccc(C(=O)Nc2cc(F)c(F)c(F)c2)cc1S(=O)(=O)NCC1(O)CCCCC1 [Example E39, 4-amino-3-(N-((1-hydroxycyclohexyl)methyl)sulfamoyl)-N-(3,4,5-trifluorophenyl)benzamide] | > 50
CC(C)(C)OC(=O)N1CC[C@H](NS(=O)(=O)c2cc(C(=O)Nc3cc(F)c(F)c(F)c3)ccc2N)C1 [Example E34, tert-butyl (S)-3-((2-amino-5-((3,4,5-trifluorophenyl)carbamoyl)phenyl)sulfonamido)pyrrolidine-1-carboxylate] | > 50
Nc1ccc(C(=O)Nc2ccc(F)c(Cl)c2)cc1S(=O)(=O)N1CC(O)C1 [Example E55, 4-amino-N-(3-chloro-4-fluorophenyl)-3-((3-hydroxyazetidin-1-yl)sulfonyl)benzamide] | > 50
Nc1ccc(C(=O)Nc2ccc(F)c(C(F)F)c2)cc1S(N)(=O)=O [Example E9, 4-amino-N-(3-(difluoromethyl)-4-fluorophenyl)-3-sulfamoylbenzamide] | > 50
Nc1ncc(C(=O)Nc2cc(F)c(F)c(F)c2)cc1S(N)(=O)=O [Example E37, 6-amino-5-sulfamoyl-N-(3,4,5-trifluorophenyl)nicotinamide] | < 50
Nc1ccc(C(=O)Nc2ccc(F)c(C(F)(F)F)c2)cc1S(N)(=O)=O [Example E7, 4-amino-N-(4-fluoro-3-(trifluoromethyl)phenyl)-3-sulfamoylbenzamide] | > 50
Nc1ccc(C(=O)Nc2cc(F)c(F)cc2F)cc1S(N)(=O)=O [Example E15, 4-amino-3-sulfamoyl-N-(2,4,5-trifluorophenyl)benzamide] | < 50
Nc1ccc(C(=O)Nc2cc(F)c(F)c(F)c2)cc1S(=O)(=O)N[C@@H]1CC[C@H](O)C1 [Example E49, 4-amino-3-(N-((1R,3S)-3-hydroxycyclopentyl)sulfamoyl)-N-(3,4,5-trifluorophenyl)benzamide] | > 50
Nc1ccc(C(=O)Nc2cc(F)c(F)c(F)c2)cc1S(=O)(=O)N[C@H]1C[C@@H](O)C1 [Example E24] | > 50

same assay, conditions: Hepatitis B virus; 1 μM, HepAD38, 96 hours; read-out: HBV inhibition % (conc μM)

SMILES | inhibition at 1 µM [%]
Nc1cc(Br)c(C(=O)Nc2cc(F)c(F)c(F)c2)cc1S(N)(=O)=O [Example E6, 4-amino-2-bromo-5-sulfamoyl-N-(3,4,5-trifluorophenyl)benzamide] | > 50
CNc1ccc(C(=O)Nc2cc(F)c(F)c(F)c2)cc1S(N)(=O)=O [Example E1, 4-(methylamino)-3-sulfamoyl-N-(3,4,5-trifluorophenyl)benzamide] | < 50

same assay, conditions: Hepatitis B virus; HepAD38, 8-point dose-response; read-out: HBV inh EC50

SMILES | EC50 [nM]
Cc1cc(N)c(S(N)(=O)=O)cc1C(=O)Nc1ccc(F)c(Cl)c1 [Example E60, 4-amino-N-(3-chloro-4-fluorophenyl)-2-methyl-5-sulfamoylbenzamide] | < 1000
Nc1ccc(S(=O)(=O)N[C@H]2CC[C@H](O)CC2)cc1C(=O)Nc1cc(F)c(F)c(F)c1 [Example E61, trans-2-amino-5-(N-(4-hydroxycyclohexyl)sulfamoyl)-N-(3,4,5-trifluorophenyl)benzamide] | < 1000

same assay, conditions: concentration not given, HepAD38

SMILES | HBV inhibition % (conc μM)
Cc1cc(NC(=O)c2cc(S(N)(=O)=O)c(N)cc2C)ccc1F [Example E40, 4-amino-N-(4-fluoro-3-methylphenyl)-2-methyl-5-sulfamoylbenzamide] | A (HBV inhibition greater than 50% at the concentration indicated in the table)
